Entries after “also recorded” stand apart in the source; their conditions may differ.
Assays:
[1] = tested on: Alzheimer's disease-derived spheroids (PS1-mutated AD-iPSC-NPCs); assay: Aβ (1-42) ELISA in Alzheimer's disease-derived spheroids cultured with drug; type: cell-based, human; settings: 10 μM, 3 days; FIG. 6B
Description: (§1) For drug efficacy testing of 3D cultured cells, PS1-mutated AD-iPSC-NPCs were differentiated into spheroids in a U-bottom plate (Thermo Fisher Scientific). Spheroids were cultured with nordihydroguaiaretic acid (NDGA)(10 μM, Tokyo Chemical Industry, Tokyo, Japan) or curcumin (CU)(10 μM, Tokyo Chemical Industry) in a humidified incubator under 37° C. and 5% CO^2 conditions for 3 days and then fixed for immunocytochemistry and western blotting.

[2] = tested on: Alzheimer's disease-derived spheroids (PS1-mutated AD-iPSC-NPCs); assay: ThT staining of Aβ aggregates in Alzheimer's disease-derived spheroids; type: cell-based, human; settings: 10 μM, 3 days; confocal microscopy; FIG. 6C
Description: as §1
(§2) After washing with a probe-free medium, samples were captured and analyzed using a fluorescence microscope (FV3000, Olympus).

[3] = tested on: Alzheimer's disease-derived spheroids (PS1-mutated AD-iPSC-NPCs); assay: CellEvent Caspase-3/7 Green activated caspase staining in Alzheimer's disease-derived spheroids; type: cell-based, human; settings: for CellEvent fluorescence signal (activated caspase cell death staining): 10 μM, 3 days, confocal microscopy, FIG. 6D; for green fluorescence of activated caspase, confocal z-stack from surface to inside of spheroids (cell penetration/uptake): confocal z-stack images, FIG. 7
Description: as §1
(§3) After being washed with a probe-free medium, samples were captured and analyzed using a fluorescence microscope (FV3000, Olympus). Cell penetration/uptake by CellEvent staining was analyzed with confocal z-stack data for the green fluorescence of activated caspase released from the inside of spheroids. The confocal z-stack data was obtained from 100 slides of each 1 μm of one spheroid.

Aβ (1-42) = target: T1, Aβ (1-42) (Homo sapiens, UniProt P05067); assay: in vitro ThT fluorescence assay for Aβ (1-42) aggregation; type: biochemical; settings: 10 μM compound, 2 μM Aβ (1-42), 20 μM ThT, pH 8.0, 37° C.; FIG. 6A
T1 construct: an Aβ (1-42) peptide (AGP-8338, Anygen, Gwangju, Republic of Korea); purchased Anygen AGP-8338
T1 sequence (P05067 672-713 limits assumed): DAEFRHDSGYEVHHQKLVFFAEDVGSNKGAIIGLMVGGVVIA
Description: The degree of inhibition of Aβ (1-42) aggregation was measured using an in vitro ThT fluorescence assay. An Aβ (1-42) stock (0.2 mM) was prepared in 50% DMSO, and NDGA and CU stocks were prepared in 100% DMSO. Reactions for Aβ (1-42) aggregation (2 μM) and its inhibition by NDGA or CU (10 μM) were performed in a 20 mM sodium phosphate buffer (pH 8.0) supplemented with 0.2 mM EDTA and 0.02% sodium azide in the presence of 20 μM ThT in microplate wells (Corning® 96-well Black Flat Bottom Polystyrene Not Treated Microplate, Corning). ThT fluorescence intensity was measured every 30 minutes under 0.5 min shaking under 335 rpm/29.5 min incubation conditions at 37° C. using an Infinite […] (TECAN Mannedorf, Switzerland) microplate reader with 450-nm excitation and 480-nm emission filters.

[4] = tested on: 3D spheroids manufactured from iPSC-NPCs derived from healthy individuals; assay: ThT staining of control 3D spheroids treated with oligomerized Aβ; type: cell-based, human; settings: Aβ aggregates 10 μM, 24 hours, compared to spheroids not treated with Aβ; FIG. 4A
Description: (§4) J Neurosci Methods. 2010; 190(2): 171-179. […] When used, Aβ was suspended in PBS and used.
as §2

[5] = tested on: 3D spheroids manufactured from iPSC-NPCs derived from healthy individuals; assay: CellEvent activated caspase staining of control 3D spheroids treated with oligomerized Aβ; type: cell-based, human; settings: Aβ aggregates 10 μM, 24 hours, compared to untreated; FIG. 4C
Description: as §4, §3

| Molecule | Aβ (1-42) levels by ELISA [1] | ThT fluorescence signal / staining intensity (Aβ aggregates) [2] | CellEvent fluorescence signal (activated caspase cell death staining) [3] | green fluorescence of activated caspase, confocal z-stack from surface to inside of spheroids (cell penetration/uptake) [3] | Aβ (1-42) aggregation (ThT fluorescence) (Aβ (1-42)) | ThT fluorescence emission [4] | green fluorescence emission according to CellEvent staining (cell death) [5] |
| --- | --- | --- | --- | --- | --- | --- | --- |
| COc1cc(/C=C/C(=O)CC(=O)/C=C/c2ccc(O)c(OC)c2)ccc1O [CU, curcumin] | decreased; also recorded: reduced | reduced | reduced | reduction in fluorescence from the surface to the inside of spheroids | suppressed | – | – |
| CC(Cc1ccc(O)c(O)c1)C(C)Cc1ccc(O)c(O)c1 (stereo not drawn) [NDGA, nordihydroguaiaretic acid] | decreased; also recorded: reduced | reduced | reduced | reduction in fluorescence from the surface to the inside of spheroids | suppressed | – | – |
| oligomerized Aβ: Aβ (1-42) peptide aggregated/oligomerized in DMSO, used to treat control spheroids | – | – | – | – | – | noticeably increased | substantially increased |

Source: patent US20240279604A1, “3D spheroid having uniform size and composition comprising neuron and astrocyte derived from Alzheimer's disease patients, method for producing thereof, and method and kit for screening drug using thereof” (Industry-University Cooperation Foundation Hanyang …, priority 2023, published 2024)
